Data taken from patent US20130303460A1, “PEPTIDES AND COMPOSITIONS FOR THE TREATMENT OF NEUROECTODERMAL DERIVED TUMORS AND RETINOBLASTOMA” (Biokine Therapeutics Ltd., priority 2011, published 2013).

What was measured:
[1] = test system: Y79 Retinoblastoma cells; experiment: Survival of Y79 retinoblastoma cells (PI staining, FACS); format: cell-based, human; conditions: 4, 8, 20 and 40 micromolar, 24 hr; PI staining FACS (FIG. 3)
Description: Y79: Retinoblastoma cells from primary tumor with familial history of Retinoblastoma;
All cell lines were cultured in RPMI1640 (Gibco BRL life technologies)+10% FCS, 1% L-Glutamine, 1% PS (Penicillin, Streptomycin) (Biological Industries, Kibbutz Beth Haemek, Israel) at 37° C., 5% CO2.
4F-benzoyl-TN14003 (designated BKT140) effect on Y79 Retinoblastoma cells survival.

[2] = test system: Neuroblastoma cancer cell lines (SHY-5Y, SK-N-BE and NHH-NB-11); experiment: Neuroblastoma cell viability, CellTiter 96 AQueous Non-Radioactive Cell Proliferation Assay; format: cell-based, human; conditions: 72 hours, 10% FCS; compared to other CXCR4 antagonists (e.g. AMD3100) (FIG. 4)
Description: Neuroblastoma cancer cell lines (SHY-5Y, SK-N-BE and NHH-NB-11, FIGS. 4A, 4B, and 4C, respectively) were seeded at 2×10^4 viable cells/100 μl per well into a 96-well plate in triplicates in a medium supplemented with 10% FCS and incubated with different concentrations of BKT140, PLK1, AurA or AMD3100 for 72 hours. The plate was than tested for cell viability using the CellTiter 96® AQueous Non-Radioactive Cell Proliferation Assay.

[3] = test system: Neuroblastoma cancer cell lines (SHY-5Y, SK-N-BE and NHH-NB-11); experiment: Neuroblastoma cell death, PI+ cells by FACS and morphological assays; format: cell-based, human; conditions: 1% FCS, twenty hr, SK-N-BE and NHH-NB-11 (FIGS. 5, 6)
Description: The effect of BKT140 or AMD3100 on the proliferation of neuroblastoma cancer cell lines was tested by seeding the cells at 2×10^4 cells/1 ml per well into a 24-well plate in medium supplemented with 1% FCS. Twenty hr later the cells stained with PI (Sigma, St. Louis, Mo.), and the number of PI+cells (death cells) was determined using FACS analysis (as described above) (see, FIG. 6A).

[4] = test system: Neuroblastoma tumor cells injected into the adrenal; experiment: Neuroblastoma tumor growth in mice, residual disease model; format: in vivo, NOD/SCID mice; conditions: 300 μg per mouse from day 3 until day 30 after inoculation; residual disease model (FIG. 7)
Description: (§1) NOD/SCID mice were maintained under defined flora conditions at the Hebrew University Pathogen-Free Animal Facility. All experiments were approved by the Animal Care Committee of the Hebrew University. 10^6 Neuroblastoma tumor cells were injected into the adrenal of the mice ([…] per mouse). As control, mice were treated with PBS. Tumor growth was monitored weekly. MRI testing was performed on a horizontal 4.7 T Bruker Biospec spectrometer, using a birdcage coil.

[5] = test system: Neuroblastoma tumor cells injected into the adrenal; experiment: Neuroblastoma tumor growth in mice, established (treatment) disease model; format: in vivo, NOD/SCID mice; conditions: subcutaneously 300 μg per mouse until day 30, started when tumor size reached ~0.04 cm^2 (FIG. 8)
Description: as §1

[6] = test system: epithelial tumor cells (e.g., breast and prostate carcinoma and glioblastoma); experiment: Effect on epithelial tumor cells; format: cell-based; conditions: summary statement, example not given

4F-benzoyl-Arg-Arg-Nal-Cys-Tyr-Cit-Lys-DLys-Pro-Tyr-Arg-Cit-Cys-Arg-NH2 [4F-benzoyl-TN14003]
cell death / survival of Y79 retinoblastoma cells [1]: stimulate cell death of retinoblastoma cells
cell viability of neuroblastoma cells [2]: remarkably low cell viability
neuroblastoma cell death (PI+ cells) [3]: stimulate neuroblastoma cell death
tumor growth [4]: delayed and in some cases inhibited tumor growth
tumor growth [5]: delayed and in some cases inhibited tumor growth
growth of epithelial tumor cells ([6]; breast and prostate carcinoma and glioblastoma): in some cases even stimulated the growth of epithelial tumor cells
epithelial tumor cell death [6]: did not induce epithelial tumor cell death
